Assay results taken from publication PMC6811774, “Potent, selective, and subunit‐dependent activation of TRPC5 channels by a xanthine derivative” (British Journal of Pharmacology, 2019).

Biological target: T1, TRPC4-SYFP2 (TRPC4:C4 channels) (Homo sapiens, UniProt Q9UBN4)
T1 construct: expressed in transfected cells
T1 sequence (Q9UBN4 1-893 isoform Q9UBN4-2): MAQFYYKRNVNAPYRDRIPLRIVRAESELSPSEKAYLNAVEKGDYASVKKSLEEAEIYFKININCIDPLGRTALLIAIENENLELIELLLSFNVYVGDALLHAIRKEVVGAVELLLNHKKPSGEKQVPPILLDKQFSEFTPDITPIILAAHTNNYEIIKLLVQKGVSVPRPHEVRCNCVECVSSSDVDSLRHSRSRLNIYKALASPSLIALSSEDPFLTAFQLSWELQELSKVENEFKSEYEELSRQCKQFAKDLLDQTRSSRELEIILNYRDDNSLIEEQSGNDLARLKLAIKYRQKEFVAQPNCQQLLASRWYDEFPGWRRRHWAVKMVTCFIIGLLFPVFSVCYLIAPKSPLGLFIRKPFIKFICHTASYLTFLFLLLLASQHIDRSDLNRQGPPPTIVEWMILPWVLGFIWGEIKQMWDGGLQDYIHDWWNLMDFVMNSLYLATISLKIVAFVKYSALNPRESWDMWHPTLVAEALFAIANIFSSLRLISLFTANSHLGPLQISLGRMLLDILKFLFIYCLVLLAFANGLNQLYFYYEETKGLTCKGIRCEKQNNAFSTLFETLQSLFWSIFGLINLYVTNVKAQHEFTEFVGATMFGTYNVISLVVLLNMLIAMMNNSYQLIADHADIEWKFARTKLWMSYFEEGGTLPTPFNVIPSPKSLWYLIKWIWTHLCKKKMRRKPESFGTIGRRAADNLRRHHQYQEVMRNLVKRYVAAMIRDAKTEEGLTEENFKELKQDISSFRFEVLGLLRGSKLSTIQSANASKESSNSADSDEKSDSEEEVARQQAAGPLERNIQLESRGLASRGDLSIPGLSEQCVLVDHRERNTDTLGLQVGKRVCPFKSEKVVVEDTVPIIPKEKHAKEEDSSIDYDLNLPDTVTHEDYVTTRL
Test: [Ca2+]i measurement in (Tet+) HEK T-REx cells expressing hTRPC4-SYFP2
Format: cell-based
Excerpt: To facilitate cloning of TRPC5‐SYFP2 and TRPC4‐SYFP2, a pcDNA™4/TO expression vector (ThermoFisher Scientific, Waltham, MA, USA), into which a four amino acid linker (ASAS) flanked by AgeI and SacII restriction sites had been introduced between EcoRI and XhoI restriction sites, was used (Naylor et al., 2016). Human TRPC4β was inserted between BamHI and AgeI restriction sites as described previously (Ludlow et al., 2017). Human TRPC5 (forward primer: 5′ GCTTGGTACCGCCACCATG 3′ and reverse primer: 5′ […] 3′) was inserted upstream of the linker between KpnI and AgeI restriction sites using hTRPC5/pcDNA™4/TO (Zeng et al., 2004) as a PCR template. Both constructs contained an N‐terminal Kozak sequence. SYFP2 was inserted downstream of the linker between SacII and XbaI restriction sites using pSYFP2‐C1 as a PCR template (forward primer, 5′ […] 3′; reverse primer, 5′ […] 3′). pSYFP2‐C1 was a gift from Dorus Gadella (Addgene plasmid #22878; http://n2t.net/addgene:22878; RRID:Addgene_22878; Kremers, Goedhart, van Munster, & Gadella, 2006). Plasmids were sequenced to verify identity.
HEK T‐REx™ cell line was transfected with TRPC5‐SYFP2 or TRPC4‐SYFP2 using FuGENE® HD transfection reagent. After 48 hr, cells were put under antibiotic selection using 400 μg·ml^−1 zeocin and 10 μg·ml^−1 blasticidin S (Invivogen, San Diego, California, USA). Medium changes were carried out regularly to remove dead cells. HEK T‐REx cells expressing tetracycline‐inducible human TRPC5, TRPC4–C1, and TRPC5–C1 were created as described previously (Akbulut et al., 2015; Ludlow et al., 2017; Rubaiy, Ludlow, Henrot, et al., 2017). TRPC5–C1 and TRPC4–C1 concatemers allow expression of functional channels with defined 2:2 stoichiometry that display ion permeability and current–voltage relationships distinct from those of homomeric TRPC4:C4 or TRPC5:C5 channels and consistent with those obtained upon co‐expression of TRPC1 with TRPC4 or TRPC5 (Ludlow et al., 2017; Rubaiy, Ludlow, Bon, & Beech, 2017; Rubaiy, Ludlow, Henrot, et al., 2017). […]

Cn1c(=O)n(CCCO)c(=O)c2c1nc(Oc1ccc(Cl)c(OC(F)(F)F)c1)n2Cc1ccc(Cl)cc1 [AM237]
Hill slope, inhibition of EA response: −0.78
Effect of pretreatment on basal [Ca2+]i (0.3–300 nM AM237): did not affect
Activation upon acute administration ([Ca2+]i) (3-300 nM AM237): lack of activation
